The values below come from PubChem BioAssay AID1259407 (Chemical Carcinogenesis Research Information System (CCRIS), 2018).

The subject of the data set is CCRIS mutagenicity, Ames/micronucleus/aberration tests. The experiment in a line: CCRIS mutagenicity studies.

Calls of active or inactive are those of the source. The rule behind the calls is not given here.

For the molecule `c1cnc2c(c1)-c1ncsc1CC2`, the mutagenic call (Test System: AMES SALMONELLA TYPHIMURIUM, Strain/Indicator: TA1538, Metabolic Activation: RAT, LIVER, S-9, AROCLOR 1254, Method: STANDARD PLATE) was “inactive; negative”.
For `Nc1cccc2cccc(N)c12`, the mutagenic call is, setting by setting: (Test System: AMES SALMONELLA TYPHIMURIUM, Strain/Indicator: TA98, Metabolic Activation: RAT LIVER, CYTOSOL, AROCLOR 1254, Method: STANDARD PLATE) “inactive; negative”; (Test System: AMES SALMONELLA TYPHIMURIUM, Strain/Indicator: TA98, Metabolic Activation: RAT LIVER, MICROSOMES, AROCLOR 1254, Method: STANDARD PLATE) “active; positive”.
Consider `[2H]C([2H])([2H])N=NO`, for which the mutagenic call runs as follows: (Test System: AMES SALMONELLA TYPHIMURIUM, Strain/Indicator: TA1535, Metabolic Activation: NONE, Method: STANDARD PLATE) “active; positive”; (Test System: E. COLI, Strain/Indicator: WP2, Metabolic Activation: NONE, Method: STANDARD PLATE) “active; positive”; (Test System: E. COLI, Strain/Indicator: WP2 UVRA, Metabolic Activation: NONE, Method: STANDARD PLATE) “active; positive”.
Consider `O=C(NCO)c1ccc(Cl)cc1`, for which the mutagenic call was “inactive; negative” (Test System: AMES SALMONELLA TYPHIMURIUM, Strain/Indicator: TA100, Metabolic Activation: RAT, LIVER, S-9, AROCLOR AND 3'-PHOSPHOADENOSINE-5'-PHOSPHOSULPHATE GENERATING SYSTEM, Method: PREINCUBATION); “inactive; negative” (Test System: AMES SALMONELLA TYPHIMURIUM, Strain/Indicator: TA100, Metabolic Activation: RAT, LIVER, S-9, AROCLOR AND ACETYL COENZYME A, Method: PREINCUBATION); “inactive; negative” (Test System: AMES SALMONELLA TYPHIMURIUM, Strain/Indicator: TA100, Metabolic Activation: RAT, LIVER, S-9, AROCLOR, Method: PREINCUBATION).
Consider `CCN(Cc1ccccc1)c1ccccc1`, for which the mutagenic call is, setting by setting: (Test System: AMES SALMONELLA TYPHIMURIUM, Strain/Indicator: TA97, Metabolic Activation: HAMSTER, LIVER, S-9, AROCLOR 1254 (10 OR 30%), Method: PREINCUBATION) “inactive; negative”; (Test System: AMES SALMONELLA TYPHIMURIUM, Strain/Indicator: TA97, Metabolic Activation: NONE, Method: PREINCUBATION) “inactive; negative”; (Test System: AMES SALMONELLA TYPHIMURIUM, Strain/Indicator: TA97, Metabolic Activation: RAT, LIVER, S-9, AROCLOR 1254 (10 OR 30%), Method: PREINCUBATION) “inactive; negative”; (Test System: AMES SALMONELLA TYPHIMURIUM, Strain/Indicator: TA98, Metabolic Activation: HAMSTER, LIVER, S-9, AROCLOR 1254 (10 OR 30%), Method: PREINCUBATION) “inactive; negative”; (Test System: AMES SALMONELLA TYPHIMURIUM, Strain/Indicator: TA98, Metabolic Activation: NONE, Method: PREINCUBATION) “inactive; negative”; (Test System: AMES SALMONELLA TYPHIMURIUM, Strain/Indicator: TA98, Metabolic Activation: RAT LIVER S-9, PHENOBARBITAL AND BETA-NAPHTHOFLAVONE, Method: PREINCUBATION) “inactive; negative”. In addition, the mutagenic call is, setting by setting: (Test System: AMES SALMONELLA TYPHIMURIUM, Strain/Indicator: TA98, Metabolic Activation: RAT, LIVER, S-9, AROCLOR 1254 (10 OR 30%), Method: PREINCUBATION) “inactive; negative”; (Test System: AMES SALMONELLA TYPHIMURIUM, Strain/Indicator: TA100, Metabolic Activation: HAMSTER, LIVER, S-9, AROCLOR 1254 (10 OR 30%), Method: PREINCUBATION) “inactive; negative”; (Test System: AMES SALMONELLA TYPHIMURIUM, Strain/Indicator: TA100, Metabolic Activation: NONE, Method: PREINCUBATION) “inactive; negative”; (Test System: AMES SALMONELLA TYPHIMURIUM, Strain/Indicator: TA100, Metabolic Activation: RAT LIVER S-9, PHENOBARBITAL AND BETA-NAPHTHOFLAVONE, Method: PREINCUBATION) “inactive; negative”; (Test System: AMES SALMONELLA TYPHIMURIUM, Strain/Indicator: TA100, Metabolic Activation: RAT, LIVER, S-9, AROCLOR 1254 (10 OR 30%), Method: PREINCUBATION) “inactive; negative”; (Test System: AMES SALMONELLA TYPHIMURIUM, Strain/Indicator: TA1535, Metabolic Activation: HAMSTER, LIVER, S-9, AROCLOR 1254 (10 OR 30%), Method: PREINCUBATION) “inactive; negative”. Also, the mutagenic call is “inactive; negative” (Test System: AMES SALMONELLA TYPHIMURIUM, Strain/Indicator: TA1535, Metabolic Activation: NONE, Method: PREINCUBATION); “inactive; negative” (Test System: AMES SALMONELLA TYPHIMURIUM, Strain/Indicator: TA1535, Metabolic Activation: RAT LIVER S-9, PHENOBARBITAL AND BETA-NAPHTHOFLAVONE, Method: PREINCUBATION); “inactive; negative” (Test System: AMES SALMONELLA TYPHIMURIUM, Strain/Indicator: TA1535, Metabolic Activation: RAT, LIVER, S-9, AROCLOR 1254 (10 OR 30%), Method: PREINCUBATION); “inactive; negative” (Test System: AMES SALMONELLA TYPHIMURIUM, Strain/Indicator: TA1537, Metabolic Activation: NONE, Method: PREINCUBATION); “inactive; negative” (Test System: AMES SALMONELLA TYPHIMURIUM, Strain/Indicator: TA1537, Metabolic Activation: RAT LIVER S-9, PHENOBARBITAL AND BETA-NAPHTHOFLAVONE, Method: PREINCUBATION); “inactive; negative” (Test System: AMES SALMONELLA TYPHIMURIUM, Strain/Indicator: TA1538, Metabolic Activation: NONE, Method: PREINCUBATION). Further, the mutagenic call (Test System: AMES SALMONELLA TYPHIMURIUM, Strain/Indicator: TA1538, Metabolic Activation: RAT LIVER S-9, PHENOBARBITAL AND BETA-NAPHTHOFLAVONE, Method: PREINCUBATION) is “inactive; negative”; the mutagenic call (Test System: E.COLI, Strain/Indicator: WP2UVRA, Metabolic Activation: NONE, Method: PREINCUBATION) was “inactive; negative”; the mutagenic call (Test System: E.COLI, Strain/Indicator: WP2UVRA, Metabolic Activation: RAT LIVER S-9, PHENOBARBITAL AND BETA-NAPHTHOFLAVONE, Method: PREINCUBATION) is “inactive; negative”.
Turning to `CC(C)C(=O)Nc1ccccc1`, the mutagenic call (Test System: AMES SALMONELLA TYPHIMURIUM, Strain/Indicator: TA100, Metabolic Activation: NONE, Method: STANDARD PLATE) was “inactive; negative”.
